Here are results for 5 substances from patent publication US8895502B2, “β2-glycoprotein I peptide inhibitors” (Kansas State University Research Foundation, priority 2010, dated 2014).

“Also recorded” adds a separate entry of the source. Ends that are not written are not given here.

One experiment has as its system PGE2. Briefly: Intestinal IR, ex vivo PGE2 generation. The experiment is classed as in vivo, mouse. Further details: key to PGE2 Production: + indicates significant difference from Sham treated mice; − indicates not significantly different from C57B1/6 sham treated mice; +/− indicates no significant difference from either C57B1/6 mice subjected to either Sham or IR. To be noted: for IR-induced intestinal PGE2 production: C57Bl/6 mice, peptide 40 μM prior to IR. On the procedure:
C57Bl/6 and Rag-1^−/− mice were subjected to ischemia followed by reperfusion similar to previously described studies (Moses, T. et al., J. Leukoc. Biol. 86:971-980 (2009)). Briefly, ketamine (16 mg/kg) and xylazine (80 mg/kg) were used to anesthetize the mice. Buprenorphine (0.06 mg/kg) was then administered for pain. A midline laparotomy was performed to expose the abdominal cavity of the mice, which were then allowed to equilibrate for 30 min. Body temperature was maintained at 37° C. using a water-circulating heat pad. Placing a warm, saline moistened piece of gauze over the abdominal cavity prevented peritoneal desiccation. […] Ischemia was noted by the intestine changing from a pink color to a gray color. After 30 min of ischemia, the clamp was removed and the intestines were allowed to reperfuse for 5, 10, 15, or 120 min. […] Peptides 296, 305, and 296Cys to Ser were dissolved in N. Saline (0.9% NaCl) and injected i.v. in 100-μL volumes. Peptides 100 and 181 were dissolved in DMSO prior to diluting 1/100 in N. Saline. Additional mice received peptides prior to Sham treatment.
(§1) Ex vivo generation of eicosanoids by mid-jejunal tissue was determined. Immediately after collection, a 2-cm intestinal section from each mouse was minced, washed, resuspended in 37° C. oxygenated Tyrode's buffer (Sigma-Aldrich; St. Louis, Mo.), incubated at 37° C. for 20 minutes, and the supernatant collected. PGE2 and LTB4 concentrations were determined using enzyme immunoassay kits (Cayman Chemical; Ann Arbor, Mich.). IL-6 and IL-12 concentrations were determined using a Milliplex MAP immunoassay kit (Millipore) and read on a Milliplex Analyzer (Millipore). All eicosanoid and cytokine concentrations were standardized to the total tissue protein content.
(§2) Total peroxidase, LTB4, PGE2, IL-6, IL-12p40, and IL-12p70 concentrations were determined using the procedures described in Example 1.

The next experiment deals with CD106 (VCAM-1). As to the kind of experiment: Intestinal IR, VCAM immunohistochemistry. The format is in vivo, mouse. Conditions: C57Bl/6 mice, peptide prior to IR, data not shown. On the procedure:
C57Bl/6 and Rag-1^−/− mice were subjected to ischemia followed by reperfusion similar to previously described studies (Moses, T. et al., J. Leukoc. Biol. 86:971-980 (2009)). Briefly, ketamine (16 mg/kg) and xylazine (80 mg/kg) were used to anesthetize the mice. Buprenorphine (0.06 mg/kg) was then administered for pain. A midline laparotomy was performed to expose the abdominal cavity of the mice, which were then allowed to equilibrate for 30 min. Body temperature was maintained at 37° C. using a water-circulating heat pad. Placing a warm, saline moistened piece of gauze over the abdominal cavity prevented peritoneal desiccation. […] Ischemia was noted by the intestine changing from a pink color to a gray color. After 30 min of ischemia, the clamp was removed and the intestines were allowed to reperfuse for 5, 10, 15, or 120 min. […] Mice treated with the various β2-GPI peptides underwent the same procedure with i.v. administration of the peptides (40 μM) 5 min prior to artery occlusion. Peptides 296, 305, and 296Cys to Ser were dissolved in N. Saline (0.9% NaCl) and injected i.v. in 100-μL volumes. […]
After euthanasia, an additional 2-cm intestinal section from each mouse was immediately snap frozen in O.C.T. freezing medium and 8 μm sections were placed on slides for immunohistochemistry. The C3 deposition and F4/80 expression on the tissue sections were detected by staining with a purified rat-anti-mouse C3 (Hycult Biotechnologies; Plymouth Meeting, Pa.) or F4/80 (eBioscience; San Diego, Calif.) antibody followed by a Texas-red conjugated donkey-anti-rat IgG secondary antibody (Jackson Immunoresearch). CD31 (PECAM-1) and CD106 (VCAM-1) were detected by FITC conjugated rat anti-mouse CD31 or CD106 (Biolegend; San Diego, Calif.) antibodies. […] Images were obtained at room temperature using a Nikon Eclipse 80i microscope equipped with a CoolSnap CF camera (Photometrics) and analyzed using Metavue software (Molecular Devices). The fluorescence was semi-quantitated using Image J software (NIH) using the fluorescent area fraction after setting threshold for each experiment. […]

For another experiment, the system named is LTB4. Briefly: Intestinal IR, ex vivo LTB4 generation. The arrangement: key to LTB4 Production: + indicates significant difference from Sham treated mice; − indicates not significantly different from C57B1/6 sham treated mice; +/− indicates no significant difference from either C57B1/6 mice subjected to either Sham or IR. Conditions: for LTB4 Production: C57Bl/6 mice subjected to IR, peptide 40 μM i.v. 5 min prior to artery occlusion; for IR-induced intestinal LTB4 production: C57Bl/6 mice, peptide 40 μM prior to IR. The format is in vivo, mouse. The protocol:
(§3) C57Bl/6 and Rag-1^−/− mice were subjected to ischemia followed by reperfusion similar to previously described studies (Moses, T. et al., J. Leukoc. Biol. 86:971-980 (2009)). Briefly, ketamine (16 mg/kg) and xylazine (80 mg/kg) were used to anesthetize the mice. Buprenorphine (0.06 mg/kg) was then administered for pain. A midline laparotomy was performed to expose the abdominal cavity of the mice, which were then allowed to equilibrate for 30 min. Body temperature was maintained at 37° C. using a water-circulating heat pad. Placing a warm, saline moistened piece of gauze over the abdominal cavity prevented peritoneal desiccation. […] Ischemia was noted by the intestine changing from a pink color to a gray color. After 30 min of ischemia, the clamp was removed and the intestines were allowed to reperfuse for 5, 10, 15, or 120 min. […] Mice treated with the various β2-GPI peptides underwent the same procedure with i.v. administration of the peptides (40 μM) 5 min prior to artery occlusion. Peptides 296, 305, and 296Cys to Ser were dissolved in N. Saline (0.9% NaCl) and injected i.v. in 100-μL volumes. Peptides 100 and 181 were dissolved in DMSO prior to diluting 1/100 in N. Saline. Additional mice received peptides prior to Sham treatment.
as §1, §2

In a further experiment the test system is F4/80. Briefly: Intestinal IR, F4/80 macrophage marker immunohistochemistry. To be noted: for F4/80 Deposition: C57Bl/6 mice subjected to IR, peptide 40 μM i.v. 5 min prior to artery occlusion; for expression of the mature macrophage marker (F4/80) after IR: C57Bl/6 mice, peptide prior to IR. The arrangement: key to F4/80 Deposition: + indicates significant difference from Sham treated mice; − indicates not significantly different from C57B1/6 sham treated mice; +/− indicates no significant difference from either C57B1/6 mice subjected to either Sham or IR. The experiment is classed as in vivo, mouse. On the procedure: as §3
(§4) After euthanasia, an additional 2-cm intestinal section from each mouse was immediately snap frozen in O.C.T. freezing medium and 8 μm sections were placed on slides for immunohistochemistry. The C3 deposition and F4/80 expression on the tissue sections were detected by staining with a purified rat-anti-mouse C3 (Hycult Biotechnologies; Plymouth Meeting, Pa.) or F4/80 (eBioscience; San Diego, Calif.) antibody followed by a Texas-red conjugated donkey-anti-rat IgG secondary antibody (Jackson Immunoresearch). CD31 (PECAM-1) and CD106 (VCAM-1) were detected by FITC conjugated rat anti-mouse CD31 or CD106 (Biolegend; San Diego, Calif.) antibodies. Each experiment contained serial sections stained with the appropriate isotype control antibodies. All slides were mounted with ProLong Gold (Invitrogen). Images were obtained at room temperature using a Nikon Eclipse 80i microscope equipped with a CoolSnap CF camera (Photometrics) and analyzed using Metavue software (Molecular Devices). The fluorescence was semi-quantitated using Image J software (NIH) using the fluorescent area fraction after setting threshold for each experiment. The average of the isotype control was subtracted from each photo.

A further experiment deals with C3. As to the kind of experiment: Intestinal IR, C3 deposition immunohistochemistry. The experiment is classed as in vivo, mouse. The arrangement: key to C3 Deposition: + indicates significant difference from Sham treated mice; − indicates not significantly different from C57B1/6 sham treated mice; +/− indicates no significant difference from either C57B1/6 mice subjected to either Sham or IR. Conditions: for C3 Deposition: C57Bl/6 mice subjected to IR, peptide 40 μM i.v. 5 min prior to artery occlusion; for C3 deposition / complement activation after IR: C57Bl/6 mice, peptide infused prior to IR. On the procedure: as §3, §4

The test system of experiment [1] is thioglycollate-elicited macrophages, nitric oxide. As to the kind of experiment: β2-GPI stimulated macrophage nitric oxide production. The experiment is classed as cell-based. To be noted: mouse β2-GPI 10 μg/mL, peptide 40 μM, 18 hours. On the procedure:
C57Bl/6 mice were injected i.p. with 1 mL thioglycollate (4%) 4 days prior to peritoneal lavage. Peritoneal exudate macrophages or the B cell line, LK35.2, were seeded at 2×10^6 cells/mL in 24-well or 96-well plates. After macrophage adherence, both cell types were treated with mouse β2-GPI (10 μg/mL) with or without peptide (40 μM). Additional cells were unstimulated as a negative control or stimulated with 10 μg/mL LPS (E. coli 055B5) as a positive control. Supernatants were collected 18-20 hours after stimulation and analyzed for nitrite by Griess reagent (Hoffman & Fleming, Cell Biochem. Funct. 28:686-694 (2010)) or IL-6 by Milliplex MAP kit (Millipore) following the manufacturer's instructions using a Luminex 200 with xPONENT 3.1 and Analyst software (Millipore).

The mark [2] stands for this setting: C57Bl/6 mice subjected to IR, peptide 40 μM i.v. 5 min prior to artery occlusion.
Where [3] appears, read: 10 μM peptide 5 min prior to IR.
The mark [4] stands for this setting: administered at 15 min post-reperfusion.

Regarding “H-IHFYCKNKEKKCSYTVEAHCRDGTI-OH (cysteine pairing not given here) [peptide 296]”, the “PGE2 Production” value in the experiment on PGE2 (setting [2]) was “−”. Moreover, in the experiment on PGE2, the “IR-induced intestinal PGE2 production” value is reported as “attenuated; also recorded: blocked”. Also, the “expression of adhesion molecule VCAM after IR” value in the experiment with CD106 (VCAM-1) is reported as “inhibited”. In the experiment on LTB4, the “LTB4 Production” value was “−” and the “IR-induced intestinal LTB4 production” value is on record as “attenuated; also recorded: blocked”. For the same substance, in the experiment on F4/80, the “F4/80 Deposition” value was “−” and the “expression of the mature macrophage marker (F4/80) after IR” value (shortened to “expression … (F4/80) after IR”) was “reduced macrophage to Sham levels”. In the experiment on C3, the “C3 Deposition” value is “−” and the “C3 deposition / complement activation after IR” value is given as “significantly decreased C3 deposition; also recorded: attenuated complement activation”.

Regarding “H-IHFYSKNKEKKSSYTVEAHSRDGTI-OH [peptide 296Cys-Ser]”, the PGE2 Production result in the experiment with PGE2 (setting [3]) was “optimally attenuated”. In addition, in the experiment on PGE2 (setting [2]), the “PGE2 Production” value is recorded as “−”. Moreover, in the experiment with PGE2, the “IR-induced intestinal PGE2 production” value is reported as “attenuated; also recorded: blocked”. Besides, the PGE2 Production entry with PGE2 (setting [4]) was “attenuated”. Further, in experiment [1], the “β2-GPI-induced nitric oxide production” value is “significantly attenuated”. The “expression of adhesion molecule VCAM after IR” value in the experiment on CD106 (VCAM-1) was “inhibited”. In addition, in the experiment with LTB4, the “LTB4 Production” value is recorded as “−” and the “IR-induced intestinal LTB4 production” value is on record as “attenuated; also recorded: blocked”. Further, in the experiment with F4/80, the “F4/80 Deposition” value is “−” and the “expression … (F4/80) after IR” value was “reduced macrophage to Sham levels”. Also, in the experiment on C3, the “C3 Deposition” value is on record as “−” and the “C3 deposition / complement activation after IR” value is given as “significantly decreased C3 deposition; also recorded: attenuated complement activation”.

Consider “H-IPSCFKEHSSLAFWKTDASELTPC-NH2 (cysteine pairing not given here) [peptide 322, 18]”, for which, in the experiment with PGE2 (setting [2]), the “PGE2 Production” value was “+”. Further, the “IR-induced intestinal PGE2 production” value in the experiment with PGE2 is on record as “sustained inflammation similar to untreated mice”. Also, in the experiment with LTB4, the “LTB4 Production” value is listed as “+” and the “IR-induced intestinal LTB4 production” value was “sustained inflammation similar to untreated mice”. In the experiment on F4/80, the “F4/80 Deposition” value is “+” and the “expression … (F4/80) after IR” value is given as “increased in response to IR”. Moreover, in the experiment with C3, the “C3 Deposition” value is recorded as “+” and the “C3 deposition / complement activation after IR” value is “did not significantly inhibit C3 deposition”.

For “H-KKCSYTVEAHCRDGTIEIPSCFKEHS-OH (cysteine pairing not given here) [peptide 305, 10]”, the PGE2 Production result in the experiment on PGE2 (setting [3]) is recorded as “optimally attenuated”. The “PGE2 Production” value in the experiment with PGE2 (setting [2]) is on record as “+/−”. In addition, in the experiment with PGE2, the “IR-induced intestinal PGE2 production” value is listed as “did not attenuate; also recorded: but not eicosanoid production”. Further, in the experiment on PGE2 (setting [4]), the PGE2 Production result was “attenuated”. Further, in experiment [1], the “β2-GPI-induced nitric oxide production” value is given as “significantly attenuated”. Moreover, the “expression of adhesion molecule VCAM after IR” value with CD106 (VCAM-1) is on record as “inhibited”. In the experiment with LTB4, the “LTB4 Production” value is “+” and the “IR-induced intestinal LTB4 production” value is “did not attenuate”. Besides, in the experiment with F4/80, the “F4/80 Deposition” value is reported as “−” and the “expression … (F4/80) after IR” value is “reduced macrophage to Sham levels”. In the experiment with C3, the “C3 Deposition” value was “−” and the “C3 deposition / complement activation after IR” value is “not significantly different from either Sham or IR treatment; also recorded: attenuated complement activation”.

For “H-KNISFACNPGFFLNG-NH2 [peptide 100, 16, reference compound]”, the “PGE2 Production” value in the experiment with PGE2 (setting [2]) is on record as “+”. For the same substance, the “IR-induced intestinal PGE2 production” value in the experiment with PGE2 is listed as “sustained inflammation similar to untreated mice”. Moreover, in the experiment on LTB4, the “LTB4 Production” value was “+” and the “IR-induced intestinal LTB4 production” value was “sustained inflammation similar to untreated mice”. Further, in the experiment with F4/80, the “F4/80 Deposition” value is recorded as “+” and the “expression … (F4/80) after IR” value was “reduced macrophage to Sham levels”. Moreover, in the experiment with C3, the “C3 Deposition” value is on record as “+” and the “C3 deposition / complement activation after IR” value is recorded as “did not significantly inhibit C3 deposition”.
